Experimental data from patent US20230113817A1, “DILEUCINE COMPOSITIONS AND METHODS OF USE THEREOF FOR FAT LOSS” (Ingenious Ingredients, LP, priority 2021, published 2023).

Columns and labels:
[1] = system: body fat of overweight subjects; experiment: Resistance exercise training study, body composition and body fat; format: in vivo, human; settings: 2 g per day, n=7 per treatment group, beginning vs conclusion of study (FIG. 2)
Source text: A randomized, double-blind, cross over design, resistance exercise training study was preformed to assess the impact of administration of the instantly disclosed compositions on subject body composition and body fat. Subjects were “overweight”, BMI of 26.8 in the leucine group, 25.0 in the dileucine group. Treatment groups received either leucine (2 g per day), dileucine (2 g per day), or placebo (n=7, per treatment group). Body measurements were taken at the beginning and conclusion of the study.

[2] = system: body weight of male Swiss albino mice; experiment: Weight management study in treadmill-trained mice; format: in vivo; settings: daily treatment for 28 days
Procedure: Animal studies were conducted to investigate the effects of test substances (treatment) on weight management in male Swiss albino mice. Animals were divided into 17 groups with each group consisting of 8 animals. The test groups were treated with the test substances daily for 28 days. All the animals were subjected to treadmill training for 5 days a week for 28 days. Measurements were taken on day 0 and 28th day.

CC(C)C[C@H](NC(=O)[C@@H](N)CC(C)C)C(=O)O [Dileucine, L-Leucyl-L-leucine]
body fat following resistance training [1]: decreased body fat
Weight in grams ([2]; treadmill training 5 days a week, dileucine 411 mg/kg, partner doses per Table 1): 33.23 grams
Percent Difference from Placebo ([2]; weight vs control group, treadmill training, doses per Table 1): −2.69%

CC(C)C[C@H](N)C(=O)O [leucine]
body fat following resistance training [1]: modest increases in body fat
